Measured values as given in patent publication US5935973A, “Heterocyclcarboxamide derivatives and their use as therapeutic agents” (Knoll Aktiengesellschaft, priority 1995, dated 1999).

Legend:
D2 dopamine receptors = target: T1, D2 dopamine receptors (Rattus norvegicus, UniProt P61169); experiment: inhibition of tritiated (S)-sulpiride binding to D2 dopamine receptors in rat striatal tissue; settings: rat striatum; for Ki: tritiated (S)-sulpiride 1 nM, 4° C., 40 min; for inhibition at 1 µM: at 10^-6 M, tritiated (S)-sulpiride, read-out: % displacement of radio ligand, D2
T1 construct: Striatal tissue from the brains of male Charles River CD rats; from tissue; host or cells: rat striatum membranes
T1 sequence (P61169 whole entry): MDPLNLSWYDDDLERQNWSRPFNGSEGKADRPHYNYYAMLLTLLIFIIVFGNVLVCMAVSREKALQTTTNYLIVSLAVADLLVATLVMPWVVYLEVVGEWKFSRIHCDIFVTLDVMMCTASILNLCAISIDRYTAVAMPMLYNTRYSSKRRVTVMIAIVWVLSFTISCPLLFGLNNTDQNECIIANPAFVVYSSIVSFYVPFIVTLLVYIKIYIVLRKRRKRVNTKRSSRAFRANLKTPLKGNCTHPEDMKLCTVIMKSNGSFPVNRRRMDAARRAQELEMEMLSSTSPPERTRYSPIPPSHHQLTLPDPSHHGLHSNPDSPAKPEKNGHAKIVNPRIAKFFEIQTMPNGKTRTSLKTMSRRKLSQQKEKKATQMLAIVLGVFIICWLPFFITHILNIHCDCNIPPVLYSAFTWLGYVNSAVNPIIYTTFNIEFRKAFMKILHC
Experimental: Striatal tissue from the brains of male Charles River CD rats weighing between 140-250 g were homogenised in ice-cold 50 mM Tris-HCl buffer (pH 7.7 when measured at 25° C.) and centrifuged at 40,000 g for 10 minutes. The pellet was resuspended in Tris salts buffer (50 mM Tris-HCl buffer containing 120 mM NaCl, 5 mM KCl, 2 mM CaCl2 and 1 mM MgCl2 with the addition of 6 mM ascorbic acid; pH 7.7 when measured at 25° C.), and again centrifuged at 40,000 g for 10 minutes. The final pellet was stored at -80° C. Before each test the pellet was resuspended in Tris salts buffer (equivalent to 2 mg wet weight of tissue/ml). Aliquots (720 μl; equivalent to 1.44 mg wet weight of tissue/tube) of this suspension were then added to tubes containing the ligand (40 μl; 1 nM) and Tris salts buffer (40 μl; total binding) or spiroperidol (40 μl; 10 nM; non-specific binding) or test compound (40 μl; at a single concentration of 10^-6 M or at 6 concentrations ranging from 10^-11 -10^-4 M). The ligand was tritiated (S)-sulpiride and the mixture was incubated at 4° C. for 40 minutes before the incubation was terminated by rapid filtration.
The filters were washed with ice-cold Tris-HCl buffer and dried. The filters were punched out in to vials, scintillation fluid added and were left for about 20 hours before being counted by scintillation spectrophotometry. The percentage displacement of specific binding of the tritiated ligand was calculated for the single concentration (10^-6 M) of test compound. Displacement curves were then produced over a range of concentrations for those compounds which displaced ≥50% of specific binding of the tritiated ligand at 10^-6 M. The concentration which gave a 50% inhibition of specific binding (IC50) was obtained from the curve. The inhibition coefficient Ki was then calculated using the formula [formula] in [ligand] is the concentration of the tritiated ligand used and KD is the 2 equilibrium dissociation constant for the ligand.

5-HT1A receptors = target: T2, 5-HT1A receptors (Rattus norvegicus, UniProt P19327); experiment: inhibition of [3H]8-OH-DPAT binding to 5-HT1A receptors in rat hippocampal tissue; settings: rat hippocampus; for Ki: [3H]8-OH-DPAT 2 nM, 25° C., 30 min; for inhibition at 1 µM: at 10^-6 M, [3H]8-OH-DPAT, read-out: % displacement of radio ligand, 5-HT1A
T2 construct: Hippocampal tissue from the brains of male Sprague-Dawley rats; from tissue; host or cells: rat hippocampus membranes
T2 sequence (P19327 1-422): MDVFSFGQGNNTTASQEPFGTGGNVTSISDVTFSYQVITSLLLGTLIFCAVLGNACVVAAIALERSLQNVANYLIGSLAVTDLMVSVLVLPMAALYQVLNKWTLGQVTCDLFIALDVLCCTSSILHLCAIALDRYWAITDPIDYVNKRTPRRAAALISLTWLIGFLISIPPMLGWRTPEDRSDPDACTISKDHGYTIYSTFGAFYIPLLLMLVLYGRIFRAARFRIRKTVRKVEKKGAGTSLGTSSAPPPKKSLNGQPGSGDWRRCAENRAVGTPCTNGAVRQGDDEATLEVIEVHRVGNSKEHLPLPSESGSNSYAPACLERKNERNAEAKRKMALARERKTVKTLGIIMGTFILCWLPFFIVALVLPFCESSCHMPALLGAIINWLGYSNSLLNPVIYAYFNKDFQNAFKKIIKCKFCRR
Experimental: Hippocampal tissue from the brains of male Sprague-Dawley rats (Charles River; weight range 150-250 g) was homogenised in ice-cold 50 mM Tris-HCl buffer (pH 7.7 when measured at 25° C., 1:40 w/v) and centrifuged at 30,000 g at 4° C. for 10 minutes. The pellet was rehomogenised in the same buffer, incubated at 37° C. for 10 minutes and centrifuged at 30,000 g at 4° C. for 10 minutes. The final pellet was resuspended in 50 mM Tris-HCl buffer (pH 7.7) containing 4 mM CaCl2, 0.1% L-ascorbic acid and 10 μM pargyline hydrochloride (equivalent to 6.25 mg wet weight of tissue/ml) and used immediately in the binding assay. Aliquots (400 μl; equivalent to 2.5 mg wet weight of tissue/tube) of this suspension were added to tubes containing the ligand (50 μl; 2 nM) and distilled water (50 μl total binding) or 5-HT (50 μl; 10 μM; non-specific binding) or test compound (50 μl; at a single concentration of 10^-6 M or at 10 concentrations ranging from 10^-11 -10^-3 M). The ligand was [^3 H]8-hydroxy-2-(dipropylamino)tetralin ([^3 H]8-OH-DPAT) and the mixture was incubated at 25° C. for 30 minutes before the incubation was terminated by rapid filtration.
(§1) The filters were washed with ice-cold Tris-HCl buffer and dried. The filters were punched out into vials, scintillation fluid added and radioactivity determined by liquid scintillation counting. The percentage displacement of specific binding of the tritiated ligand was calculated for the single concentration (10^-6 M) of test compound. Displacement curves were then produced for those compounds which displaced ≥50% of specific binding of the tritiated ligand at 10^-6 M using a range of concentrations of the compound. The concentration which gave 50% inhibition of specific binding (IC50) was obtained from the curve. The inhibition coefficient Ki was then calculated using the formula [formula] in which [ligand] is the concentration of the tritiated ligand used and KD is the equilibrium dissociation constant for the ligand.

α1-adrenoceptors = experiment: inhibition of [7-methoxy-3H]prazosin binding to α1-adrenoceptors in rat whole cortical tissue; settings: rat whole cortex, 30 min; for Ki: [7-methoxy-3H]prazosin 0.1 nM, 30° C.; for % displacement of radio ligand, α1: at 10^-6 M, [7-methoxy-3H]prazosin, 1 µM
Experimental: Whole cortical tissue from the brains of male Charles River CD rats weighing between 150-250 g were homogenised in ice-cold 50 mM Tris-HCl, pH 7.6 (at 25° C.; 1:40 w/v) and centrifuged at 1000 g at 4° C. for 10 minutes. The supernatant was centrifuged at 30,000 g at 4° C. for 10 minutes. The pellet was rehomogenised in 50 mM Tris-HCl, pH 7.6 (1:40 w/v) and centrifuged at 30,000 g at 4° C. for 10 minutes. The final pellet was resuspended in 50 mM Tris-HCl, pH 7.6 (equivalent to 12.5 mg wet weight of tissue/ml) and used immediately in the binding assay. Aliquots (400 μl; equivalent to 5 mg wet weight of tissue/tube) of this suspension were added to tubes containing the ligand (50 μl; 0.1 nM) and distilled water (50 μl; total binding) or phentolamine (50 μl; 5 μM; non-specific binding) or test compound (50 μl; at a single concentration of 10^-6 M or at 10 concentrations ranging from 10^-11 -10^-3 M). The ligand was [7-methoxy-^3 H]prazosin and the mixture was incubated at 30° C. for 30 minutes before the incubation was terminated by rapid filtration.
as §1

Compound	Ki (D2 dopamine receptors)	Ki (5-HT1A receptors)	Ki (α1-adrenoceptors)	inhibition at 1 µM (D2 dopamine receptors)	inhibition at 1 µM (5-HT1A receptors)	% displacement of radio ligand, α1 (α1-adrenoceptors)
Nc1ncccc1C(=O)N1CCC(CNCC2COc3ccc(Cl)cc3O2)CC1 (racemic) [Example 19, 1-(2-aminonicotinoyl)-4-[N-(7-chloro-1,4-benzodioxan-2-ylmethyl)aminomethyl]piperidine]	11.4 nM	30 nM	49 nM	–	–	–
Cc1ccc2c(c1)O[C@@H](CN1CCC(CNC(=O)c3ccc(-n4cccc4)nc3)CC1)CO2 [Example 32, (S)-N-{[1-(7-methyl-1,4-benzodioxan-2-ylmethyl)-4-piperidyl]methyl}-6-(1-pyrrolyl)pyridine-3-carboxamide]	–	–	–	80%	92%	71%
CSc1ncccc1C(=O)NCC1CCN(C[C@H]2COc3ccc(C)cc3O2)CC1 [Example 33, (S)-N-{[1-(7-methyl-1,4-benzodioxan-2-ylmethyl)-4-piperidyl]methyl}-2-(methylthio)pyridine-3-carboxamide]	–	–	–	81%	81%	41%
COc1ncccc1C(=O)NCC1CCN(C[C@H]2COc3ccc(Cl)cc3O2)CC1 [Example 26, (S)-N-{[1-(7-chloro-1,4-benzodioxan-2-ylmethyl)-4-piperidyl]methyl}-2-methoxypyridine-3-carboxamide]	43 nM	7 nM	130 nM	–	–	–
O=C(NCC1CCN(C[C@H]2COc3ccc(F)cc3O2)CC1)c1cccnc1 [Example 43, (S)-N-{[1-(7-fluoro-1,4-benzodioxan-2-ylmethyl)-4-piperidyl]methyl}pyridine-3-carboxamide]	–	–	–	68%	76%	59%
Nc1ncccc1C(=O)NCC1CCN(C[C@H]2COc3ccc(F)c(F)c3O2)CC1 [Example 27, (S)-2-amino-N-{[1-(7,8-difluoro-1,4-benzodioxan-2-ylmethyl)4-piperidyl]methyl}pyridine-3-carboxamide]	–	–	–	99.9%	90%	68%
Cc1ncccc1C(=O)NCC1CCN(C[C@H]2COc3cccc(C(F)(F)F)c3O2)CC1 [Example 46, (S)-2-methyl-N-{[1-(8-trifluoromethyl-1,4-benzodioxan-2-ylmethyl)-4-piperidyl]methyl}pyridine-3-carboxamide]	–	–	–	104%	86%	98%
Cc1ccc2c(c1)O[C@@H](CN1CCC(CNC(=O)c3cccnc3)CC1)CO2 [Example 30, (S)-N-{[1-(7-methyl-1,4-benzodioxan-2-ylmethyl)-4-piperidyl]methyl}pyridine-3-carboxamide]	–	–	–	85%	78%	61%
O=C(NCC1CCN(C[C@H]2COc3cccc(C(F)(F)F)c3O2)CC1)c1ccc(-n2cccc2)nc1 [Example 47, (S)-6-(1-pyrrolyl)-N-{[1-(8-trifluoromethyl-1,4-benzodioxan-2-ylmethyl)-4-piperidyl]methyl}pyridine-3-carboxamide]	–	–	–	100%	75%	94%

Other lines, results leading:

Ki (D2 dopamine receptors)	Ki (5-HT1A receptors)	Ki (α1-adrenoceptors)	inhibition at 1 µM (D2 dopamine receptors)	inhibition at 1 µM (5-HT1A receptors)	% displacement of radio ligand, α1 (α1-adrenoceptors)	Compound
–	–	–	91%	92%	62%	O=C(NCC1CCN(C[C@H]2COc3ccc(Cl)cc3O2)CC1)c1cncc(Br)c1 [Example 42, (S)-5-bromo-N-{[1-(7-chloro-1,4-benzodioxan-2-ylmethyl)-4-piperidyl]methyl}pyridine-3-carboxamide]
–	–	–	86%	87%	68%	Cc1ccc2c(c1)O[C@@H](CN1CCC(CNC(=O)c3cncc(Br)c3)CC1)CO2 [Example 34, (S)-5-bromo-N-{[1-(7-methyl-1,4-benzodioxan-2-ylmethyl)-4-piperidyl]-methyl}pyridine-3-carboxamide]
–	–	–	97%	85%	66%	O=C(NCC1CCN(C[C@H]2COc3ccc(Br)cc3O2)CC1)c1ccc(-n2cccc2)nc1 [Example 37, (S)-N-{[1-(7-bromo-1,4-benzodioxan-2-ylmethyl)-4-piperidyl]methyl}-6-(1-pyrrolyl)pyridine-3-carboxamide]
–	–	–	97%	80%	94%	O=C(NCC1CCN(C[C@H]2COc3cccc(C(F)(F)F)c3O2)CC1)c1cccnc1 [Example 45, (S)-N-{[1-(8-trifluoromethyl-1,4-benzodioxan-2-ylmethyl)-4-piperidyl]methyl}pyridine-3-carboxamide]
18 nM	35 nM	99 nM	–	–	–	Nc1ncccc1C(=O)NCC1CCN(C[C@H]2COc3ccc(Br)cc3O2)CC1 [Example 21, (S)-2-amino-N-{[1-(7-bromo-1,4-benzodioxan-2-ylmethyl)-4-piperidyl]methyl}pyridine-3-carboxamide]
–	–	–	57%	64%	38%	CSc1ncccc1C(=O)NCC1CCN(C[C@H]2COc3ccc(F)cc3O2)CC1 [Example 44, (S)-N-{[1-(7-fluoro-1,4-benzodioxan-2-ylmethyl)-4-piperidyl]methyl}-2-(methylthio)pyridine-3-carboxamide]
–	–	–	–	95%	85%	O=C(c1ccccn1)N1CCC(CNC[C@H]2COc3ccc(Cl)cc3O2)CC1 [Example 29, 4-[N-(7-chloro-1,4-benzodioxan-2-ylmethyl)aminomethyl]-1-(2-pyridylcarbonyl)piperidine]
